Measurements as given in ChEMBL document CHEMBL3885881, “DrugMatrix”.

Species on record: Rattus norvegicus
Experiment: DrugMatrix - Regimen: Daily Repeat
Format: toxicity, organism-based, Sprague-Dawley
Parameters: regimen Daily Repeat, gender Male, age 6-8 weeks
Conditions: in vivo, po, 13 mg/kg, route oral GAVAGE, dose level Low, […]; for ABSOLUTE BASOPHIL / ABSOLUTE EOSINOPHIL / ABSOLUTE LYMPHOCYTE / ABSOLUTE MONOCYTE / ABSOLUTE SEGMENTED NEUTROPHIL / BASOPHIL / EOSINOPHIL / ERYTHROCYTE COUNT / HEMATOCRIT / HEMOGLOBIN / LEUKOCYTE COUNT / LYMPHOCYTE / MEAN CORPUSCULAR HEMOGLOBIN / MEAN CORPUSCULAR HEMOGLOBIN CONCENTRATION / MEAN CORPUSCULAR VOLUME / MONOCYTE / NEUTROPHIL / NUCLEATED RED BLOOD CELLS / PLATELET COUNT: tissue Blood; for ALANINE AMINOTRANSFERASE / ALBUMIN / ALKALINE PHOSPHATASE / ASPARTATE AMINOTRANSFERASE / BLOOD UREA NITROGEN / CARBON DIOXIDE / CHLORIDE / CHOLESTEROL / CREATINE PHOSPHOKINASE / CREATININE / GLUCOSE / LACTATE DEHYDROGENASE / LIPASE / PHOSPHORUS / POTASSIUM / SODIUM / TOTAL BILIRUBIN / TOTAL PROTEIN / URIC ACID: tissue Plasma

CC1=C(/C=C/C(C)=C/C=C/C(C)=C\C(=O)O)C(C)(C)CCC1 [ISOTRETINOIN]
ABSOLUTE BASOPHIL (72 h, time 3 day): 0 CELLS/uL
ABSOLUTE EOSINOPHIL (72 h, time 3 day): 0 CELLS/uL
ABSOLUTE LYMPHOCYTE (72 h, time 3 day): 5796.67 CELLS/uL
ABSOLUTE MONOCYTE (72 h, time 3 day): 69.67 CELLS/uL
ABSOLUTE SEGMENTED NEUTROPHIL (72 h, time 3 day): 533.67 CELLS/uL
BASOPHIL (72 h, time 3 day): 0%
EOSINOPHIL (72 h, time 3 day): 0%
ERYTHROCYTE COUNT (72 h, time 3 day): 5.14 x10E6/uL
HEMATOCRIT (72 h, time 3 day): 32.4%
HEMOGLOBIN (72 h, time 3 day): 12.5 G/DL
LEUKOCYTE COUNT (72 h, time 3 day): 6.4 x10E3/uL
LYMPHOCYTE (72 h, time 3 day): 90.67%
MEAN CORPUSCULAR HEMOGLOBIN (72 h, time 3 day): 24.33 pg
MEAN CORPUSCULAR HEMOGLOBIN CONCENTRATION (72 h, time 3 day): 38.63 G/DL
MEAN CORPUSCULAR VOLUME (72 h, time 3 day): 63.07 fL
MONOCYTE (72 h, time 3 day): 1%
NEUTROPHIL (72 h, time 3 day): 8.33%
NUCLEATED RED BLOOD CELLS (72 h, time 3 day): 0 /100WBC
PLATELET COUNT (72 h, time 3 day): 977.33 x10E3/uL
ALANINE AMINOTRANSFERASE (72 h, time 3 day): 80.33 u/L
ALBUMIN (72 h, time 3 day): 3.7 G/DL
ALKALINE PHOSPHATASE (72 h, time 3 day): 427.67 u/L
ASPARTATE AMINOTRANSFERASE (72 h, time 3 day): 93.33 u/L
BLOOD UREA NITROGEN (72 h, time 3 day): 12 mg/dL
CARBON DIOXIDE (72 h, time 3 day): 35 mmol/L
CHLORIDE (72 h, time 3 day): 101.33 MEQ/L
CHOLESTEROL (72 h, time 3 day): 70.33 mg/dL
CREATINE PHOSPHOKINASE (72 h, time 3 day): 298 u/L
CREATININE (72 h, time 3 day): 0.1 mg/dL
GLUCOSE (72 h, time 3 day): 159.67 mg/dL
LACTATE DEHYDROGENASE (72 h, time 3 day): 103.33 u/L
LIPASE (72 h, time 3 day): 9.33 u/L
PHOSPHORUS (72 h, time 3 day): 9.4 mg/dL
POTASSIUM (72 h, time 3 day): 5.18 MEQ/L
SODIUM (72 h, time 3 day): 146.37 MEQ/L
TOTAL BILIRUBIN (72 h, time 3 day): 0.23 mg/dL
TOTAL PROTEIN (72 h, time 3 day): 5.77 G/DL
URIC ACID (72 h, time 3 day): 0.43 mg/dL
ABSOLUTE BASOPHIL (120 h, time 5 day): 0 CELLS/uL
ABSOLUTE EOSINOPHIL (120 h, time 5 day): 25 CELLS/uL
ABSOLUTE LYMPHOCYTE (120 h, time 5 day): 7680.33 CELLS/uL
ABSOLUTE MONOCYTE (120 h, time 5 day): 0 CELLS/uL
ABSOLUTE SEGMENTED NEUTROPHIL (120 h, time 5 day): 428 CELLS/uL
BASOPHIL (120 h, time 5 day): 0%
EOSINOPHIL (120 h, time 5 day): 0.33%
ERYTHROCYTE COUNT (120 h, time 5 day): 5.2 x10E6/uL
HEMATOCRIT (120 h, time 5 day): 33.33%
HEMOGLOBIN (120 h, time 5 day): 13.23 G/DL
LEUKOCYTE COUNT (120 h, time 5 day): 8.13 x10E3/uL
LYMPHOCYTE (120 h, time 5 day): 94.33%
MEAN CORPUSCULAR HEMOGLOBIN (120 h, time 5 day): 25.47 pg
MEAN CORPUSCULAR HEMOGLOBIN CONCENTRATION (120 h, time 5 day): 39.7 G/DL
MEAN CORPUSCULAR VOLUME (120 h, time 5 day): 64.1 fL
MONOCYTE (120 h, time 5 day): 0%
NEUTROPHIL (120 h, time 5 day): 5.33%
NUCLEATED RED BLOOD CELLS (120 h, time 5 day): 0 /100WBC
PLATELET COUNT (120 h, time 5 day): 1135 x10E3/uL
ALANINE AMINOTRANSFERASE (120 h, time 5 day): 75.67 u/L
ALBUMIN (120 h, time 5 day): 3.67 G/DL
ALKALINE PHOSPHATASE (120 h, time 5 day): 483 u/L
ASPARTATE AMINOTRANSFERASE (120 h, time 5 day): 105.33 u/L
BLOOD UREA NITROGEN (120 h, time 5 day): 12.33 mg/dL
CARBON DIOXIDE (120 h, time 5 day): 32 mmol/L
CHLORIDE (120 h, time 5 day): 98.67 MEQ/L
CHOLESTEROL (120 h, time 5 day): 57 mg/dL
CREATINE PHOSPHOKINASE (120 h, time 5 day): 433.67 u/L
CREATININE (120 h, time 5 day): 0.15 mg/dL
GLUCOSE (120 h, time 5 day): 156.67 mg/dL
LACTATE DEHYDROGENASE (120 h, time 5 day): 119.33 u/L
LIPASE (120 h, time 5 day): 9 u/L
PHOSPHORUS (120 h, time 5 day): 10.47 mg/dL
POTASSIUM (120 h, time 5 day): 5.72 MEQ/L
SODIUM (120 h, time 5 day): 143.43 MEQ/L
TOTAL BILIRUBIN (120 h, time 5 day): 0.3 mg/dL
TOTAL PROTEIN (120 h, time 5 day): 5.7 G/DL
URIC ACID (120 h, time 5 day): 0.67 mg/dL
